Test results: patent publication US20090054403A1, “Treatment of Post-Traumatic Stress Disorder” (priority 2007, published 2009)
pIC50, pKi: −log10 of the molar value.

Tests used:
[1] = biological target: Ca2+/calmodulin protein kinase II; test: Selected enzyme assay; assay type: biochemical
Experimental: (§1) The activity of nepicastat at twelve selected enzymes and receptors was determined using established assays. Details of individual receptor radioligand binding assays can be found in Wong et al (1993). Binding data were analyzed by iterative curve-fitting to a four parameter logistic equation. Ki values were calculated from IC50 values using the Cheng-Prusoff equation. Enzyme inhibitory activity was expressed as IC50 (concentration required to produce 50% inhibition of enzyme activity). Male SHRs (15-16 weeks old, Charles River, Wilmington, Mass., USA) were used in the study. On the day of the study, animals were weighed and randomly assigned to be dosed with either vehicle (control) or the appropriate dose of nepicastat (3, 10, 30 or 100 mg.kg^−1, po) or (R)-5-Aminomethyl-1-(5,7-difluoro-1,2,3,4-tetrahydronaphth-2-yl)-2,3-dihydro-2-thioxo-1H-imidazole hydrochloride (30 mg.kg^−1, po) three consecutive times, twelve hours apart. At six hours after the third dose, the rats were anaesthetized with halothane, decapitated and tissues (cerebral cortex, mesenteric artery and left ventricle) were rapidly harvested, weighed, placed in iced perchloric acid (0.4 M), frozen in liquid nitrogen and stored at −70° C. until subsequent analysis. To quantify noradrenaline and dopamine concentrations, tissues were homogenized by brief sonication and centrifuged at 13,000 rpm for 30 minutes at 4° C. The supernatant, spiked with 3,4-dihydroxybenzylamine (internal standard), was assayed for noradrenaline and dopamine by HPLC using electrochemical detection.
(§2) In vitro assay of selected enzymes and neurotransmitter receptors. The activity of 2a at eleven different enzymes was determined using established assays (PanLabs Inc, Foster City, Calif.). The affinity of 2a for thirteen selected receptors was determined by radioligand binding assays using standard filtration techniques and membrane preparations. Binding data were analyzed by iterative curve fitting to a four parameter logistic equation. Ki values were calculated using the Cheng-Prusoff equation.

HMG-CoA reductase = biological target: T1, HMG-CoA reductase (Homo sapiens, UniProt P04035); test: Selected enzyme assay; assay type: biochemical
T1 construct: PanLabs Inc (assay provider)
T1 sequence (P04035 whole entry, species assumed): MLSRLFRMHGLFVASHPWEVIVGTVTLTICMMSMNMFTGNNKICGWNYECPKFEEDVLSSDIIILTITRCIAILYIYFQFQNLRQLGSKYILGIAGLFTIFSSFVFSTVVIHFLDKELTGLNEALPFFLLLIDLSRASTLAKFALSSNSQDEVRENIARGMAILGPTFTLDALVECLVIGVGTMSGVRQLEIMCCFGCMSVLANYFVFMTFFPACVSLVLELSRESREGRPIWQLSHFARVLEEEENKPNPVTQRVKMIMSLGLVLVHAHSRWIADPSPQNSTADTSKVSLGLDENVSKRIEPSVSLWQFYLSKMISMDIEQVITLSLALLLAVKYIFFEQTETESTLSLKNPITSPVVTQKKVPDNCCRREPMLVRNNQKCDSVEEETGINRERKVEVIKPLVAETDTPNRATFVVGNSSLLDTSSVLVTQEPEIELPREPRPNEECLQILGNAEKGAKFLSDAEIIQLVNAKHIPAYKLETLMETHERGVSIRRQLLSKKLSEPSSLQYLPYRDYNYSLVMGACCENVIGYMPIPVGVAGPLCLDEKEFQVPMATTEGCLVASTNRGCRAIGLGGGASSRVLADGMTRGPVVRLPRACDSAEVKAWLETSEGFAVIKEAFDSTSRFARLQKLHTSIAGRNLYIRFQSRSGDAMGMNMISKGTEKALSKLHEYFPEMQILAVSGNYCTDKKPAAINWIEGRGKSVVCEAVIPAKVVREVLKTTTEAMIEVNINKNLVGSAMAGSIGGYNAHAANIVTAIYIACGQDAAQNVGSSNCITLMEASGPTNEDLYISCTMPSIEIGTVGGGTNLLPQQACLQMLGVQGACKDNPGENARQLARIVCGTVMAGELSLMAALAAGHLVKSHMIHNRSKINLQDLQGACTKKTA
Experimental: as §1, §2

acetyl CoA synthetase = test: Selected enzyme assay; assay type: biochemical
Experimental: as §1, §2

[2] = biological target: acyl CoA-cholesterol acyl transferase; test: Selected enzyme assay; assay type: biochemical
Experimental: as §1, §2

cyclooxygenase-I = biological target: T2, cyclooxygenase-I (Homo sapiens, UniProt P23219); test: Selected enzyme assay; assay type: biochemical
T2 construct: PanLabs Inc (assay provider)
T2 sequence (P23219 24-599): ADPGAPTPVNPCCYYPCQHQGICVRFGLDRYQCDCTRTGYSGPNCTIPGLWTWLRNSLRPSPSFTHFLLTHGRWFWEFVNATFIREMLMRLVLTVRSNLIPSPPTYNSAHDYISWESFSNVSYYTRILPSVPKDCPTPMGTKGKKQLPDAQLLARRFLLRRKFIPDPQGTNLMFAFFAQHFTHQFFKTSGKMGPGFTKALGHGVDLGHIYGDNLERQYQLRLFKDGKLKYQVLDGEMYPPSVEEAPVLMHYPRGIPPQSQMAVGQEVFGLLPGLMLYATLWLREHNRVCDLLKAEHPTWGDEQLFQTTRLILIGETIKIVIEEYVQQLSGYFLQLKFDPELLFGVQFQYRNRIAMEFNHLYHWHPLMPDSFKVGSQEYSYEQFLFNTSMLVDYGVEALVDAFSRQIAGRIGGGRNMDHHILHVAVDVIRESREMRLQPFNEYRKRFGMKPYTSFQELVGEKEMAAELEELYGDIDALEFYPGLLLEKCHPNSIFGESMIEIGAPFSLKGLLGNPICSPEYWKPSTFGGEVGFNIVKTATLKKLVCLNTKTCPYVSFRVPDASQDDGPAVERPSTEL
Experimental: as §1, §2

neutral endopeptidase = biological target: T3, neutral endopeptidase (Homo sapiens, UniProt P08473); test: Selected enzyme assay; assay type: biochemical
T3 construct: PanLabs Inc (assay provider)
Experimental: as §1, §2

nitric oxide synthase = test: Selected enzyme assay; assay type: biochemical
Experimental: as §1, §2

protein kinase C = test: Selected enzyme assay; assay type: biochemical; details: b560 prints protein kinase (non-selective)
Experimental: as §1, §2

tyrosine hydroxylase = biological target: T4, tyrosine hydroxylase (Homo sapiens, UniProt P07101); test: Selected enzyme assay; assay type: biochemical
T4 construct: PanLabs Inc (assay provider)
T4 sequence (P07101 whole entry): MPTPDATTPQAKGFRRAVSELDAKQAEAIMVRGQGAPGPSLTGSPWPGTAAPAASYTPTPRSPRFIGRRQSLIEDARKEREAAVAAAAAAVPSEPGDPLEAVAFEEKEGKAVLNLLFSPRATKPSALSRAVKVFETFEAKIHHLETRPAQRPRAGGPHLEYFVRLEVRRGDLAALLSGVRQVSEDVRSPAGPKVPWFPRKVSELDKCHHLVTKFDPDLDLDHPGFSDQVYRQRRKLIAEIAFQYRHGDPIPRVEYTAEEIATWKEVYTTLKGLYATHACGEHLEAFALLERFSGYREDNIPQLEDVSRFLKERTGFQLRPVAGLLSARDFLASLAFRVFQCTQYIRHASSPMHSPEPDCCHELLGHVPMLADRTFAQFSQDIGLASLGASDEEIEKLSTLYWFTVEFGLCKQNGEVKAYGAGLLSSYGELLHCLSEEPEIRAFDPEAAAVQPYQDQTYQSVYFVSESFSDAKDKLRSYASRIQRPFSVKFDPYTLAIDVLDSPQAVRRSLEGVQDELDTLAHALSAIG
Experimental: as §1, §2

[3] = biological target: 5-HT1A serotonin receptors (Homo sapiens, UniProt P08908); test: Radioligand binding assay
Experimental: as §1, §2

[4] = biological target: 5-HT2A serotonin receptors (Homo sapiens, UniProt P28223); test: Radioligand binding assay
Experimental: as §1, §2

[5] = biological target: 5-HT2C serotonin receptors (Homo sapiens, UniProt P28335); test: Radioligand binding assay
Experimental: as §1, §2

D1 dopamine receptors = D1 dopamine receptors (Homo sapiens, UniProt P21728); test: Radioligand binding assay
Experimental: as §1, §2

D2 dopamine receptors = D2 dopamine receptors (Homo sapiens, UniProt P14416); test: Radioligand binding assay
D2 dopamine receptors, sequence (P14416 whole entry): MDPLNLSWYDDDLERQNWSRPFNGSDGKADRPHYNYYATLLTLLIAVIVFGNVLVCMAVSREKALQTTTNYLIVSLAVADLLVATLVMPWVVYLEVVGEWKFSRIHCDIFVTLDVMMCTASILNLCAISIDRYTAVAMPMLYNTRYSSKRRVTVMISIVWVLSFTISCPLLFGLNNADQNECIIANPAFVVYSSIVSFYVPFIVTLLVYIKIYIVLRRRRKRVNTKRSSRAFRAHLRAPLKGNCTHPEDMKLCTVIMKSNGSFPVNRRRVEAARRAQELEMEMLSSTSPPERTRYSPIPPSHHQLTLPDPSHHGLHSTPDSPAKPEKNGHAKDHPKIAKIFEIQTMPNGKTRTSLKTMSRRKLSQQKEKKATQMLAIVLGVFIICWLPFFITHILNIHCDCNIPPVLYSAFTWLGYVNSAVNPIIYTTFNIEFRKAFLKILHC
Experimental: as §1, §2

M1 muscarinic receptors = M1 muscarinic receptors (Homo sapiens, UniProt P11229); test: Radioligand binding assay
M1 muscarinic receptors, sequence (P11229 whole entry): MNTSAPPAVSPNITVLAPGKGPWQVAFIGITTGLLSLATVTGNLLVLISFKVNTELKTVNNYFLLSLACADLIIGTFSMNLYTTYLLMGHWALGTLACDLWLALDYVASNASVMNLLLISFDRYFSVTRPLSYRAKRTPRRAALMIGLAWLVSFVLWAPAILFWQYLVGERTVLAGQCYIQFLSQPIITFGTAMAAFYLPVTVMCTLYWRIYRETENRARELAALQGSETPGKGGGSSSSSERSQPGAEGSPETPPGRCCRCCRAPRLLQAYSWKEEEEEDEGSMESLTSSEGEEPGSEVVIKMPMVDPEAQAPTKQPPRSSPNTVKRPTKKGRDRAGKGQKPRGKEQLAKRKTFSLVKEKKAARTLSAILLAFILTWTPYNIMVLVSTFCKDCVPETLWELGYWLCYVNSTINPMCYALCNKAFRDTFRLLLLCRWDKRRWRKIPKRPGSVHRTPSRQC
Experimental: as §1, §2

α2A adrenoceptors = α2A adrenoceptors (Homo sapiens, UniProt P08913); test: Radioligand binding assay
α2A adrenoceptors, sequence (P08913 whole entry): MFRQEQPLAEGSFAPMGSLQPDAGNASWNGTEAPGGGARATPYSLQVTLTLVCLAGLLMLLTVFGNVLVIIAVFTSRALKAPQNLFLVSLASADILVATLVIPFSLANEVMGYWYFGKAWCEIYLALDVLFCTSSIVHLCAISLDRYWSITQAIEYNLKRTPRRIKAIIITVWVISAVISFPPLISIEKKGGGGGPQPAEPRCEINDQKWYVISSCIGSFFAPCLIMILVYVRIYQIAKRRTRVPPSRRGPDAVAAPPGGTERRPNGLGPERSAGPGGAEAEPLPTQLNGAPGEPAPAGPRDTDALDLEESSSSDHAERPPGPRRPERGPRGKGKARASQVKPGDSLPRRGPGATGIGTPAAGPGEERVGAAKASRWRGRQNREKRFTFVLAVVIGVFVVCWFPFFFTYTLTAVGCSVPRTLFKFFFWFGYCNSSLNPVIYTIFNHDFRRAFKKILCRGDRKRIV
Experimental: as §1, §2

α2B adrenoceptors = α2B adrenoceptors (Homo sapiens, UniProt P18089); test: Radioligand binding assay
α2B adrenoceptors, sequence (P18089 whole entry): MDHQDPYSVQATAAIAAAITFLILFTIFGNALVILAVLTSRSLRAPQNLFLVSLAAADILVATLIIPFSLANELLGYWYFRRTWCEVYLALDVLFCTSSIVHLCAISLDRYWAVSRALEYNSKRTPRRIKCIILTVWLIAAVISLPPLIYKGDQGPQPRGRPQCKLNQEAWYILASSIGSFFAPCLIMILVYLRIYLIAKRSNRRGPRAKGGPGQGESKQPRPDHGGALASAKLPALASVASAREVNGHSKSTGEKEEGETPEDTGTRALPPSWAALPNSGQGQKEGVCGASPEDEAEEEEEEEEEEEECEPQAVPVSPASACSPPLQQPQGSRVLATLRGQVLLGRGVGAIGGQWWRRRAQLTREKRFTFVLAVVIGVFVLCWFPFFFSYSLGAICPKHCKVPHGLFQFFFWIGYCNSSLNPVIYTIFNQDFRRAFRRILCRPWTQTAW
Experimental: as §1, §2

β1 adrenoceptors = β1 adrenoceptors (Homo sapiens, UniProt P08588); test: Radioligand binding assay
β1 adrenoceptors, sequence (P08588 whole entry): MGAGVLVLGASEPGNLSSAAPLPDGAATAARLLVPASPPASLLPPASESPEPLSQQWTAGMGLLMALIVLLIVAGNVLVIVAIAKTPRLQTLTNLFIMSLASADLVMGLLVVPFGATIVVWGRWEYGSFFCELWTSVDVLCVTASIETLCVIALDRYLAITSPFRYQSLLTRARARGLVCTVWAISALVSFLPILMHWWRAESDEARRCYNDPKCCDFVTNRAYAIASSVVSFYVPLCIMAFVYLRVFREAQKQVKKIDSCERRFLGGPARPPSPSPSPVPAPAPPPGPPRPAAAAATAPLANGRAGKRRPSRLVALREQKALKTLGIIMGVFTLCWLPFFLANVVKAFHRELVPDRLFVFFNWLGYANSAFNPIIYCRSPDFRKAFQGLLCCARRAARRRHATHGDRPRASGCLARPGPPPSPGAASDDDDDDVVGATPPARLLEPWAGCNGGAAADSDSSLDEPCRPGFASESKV
Experimental: as §1, §2

β2 adrenoceptors = β2 adrenoceptors (Homo sapiens, UniProt P07550); test: Radioligand binding assay
Experimental: as §1, §2

μ opioid receptors = μ opioid receptors (Homo sapiens, UniProt P35372); test: Radioligand binding assay
Experimental: as §1, §2

⊕1B adrenoceptors = ⊕1B adrenoceptors (Homo sapiens, UniProt P35368); test: Radioligand binding assay
⊕1B adrenoceptors, sequence (P35368 whole entry): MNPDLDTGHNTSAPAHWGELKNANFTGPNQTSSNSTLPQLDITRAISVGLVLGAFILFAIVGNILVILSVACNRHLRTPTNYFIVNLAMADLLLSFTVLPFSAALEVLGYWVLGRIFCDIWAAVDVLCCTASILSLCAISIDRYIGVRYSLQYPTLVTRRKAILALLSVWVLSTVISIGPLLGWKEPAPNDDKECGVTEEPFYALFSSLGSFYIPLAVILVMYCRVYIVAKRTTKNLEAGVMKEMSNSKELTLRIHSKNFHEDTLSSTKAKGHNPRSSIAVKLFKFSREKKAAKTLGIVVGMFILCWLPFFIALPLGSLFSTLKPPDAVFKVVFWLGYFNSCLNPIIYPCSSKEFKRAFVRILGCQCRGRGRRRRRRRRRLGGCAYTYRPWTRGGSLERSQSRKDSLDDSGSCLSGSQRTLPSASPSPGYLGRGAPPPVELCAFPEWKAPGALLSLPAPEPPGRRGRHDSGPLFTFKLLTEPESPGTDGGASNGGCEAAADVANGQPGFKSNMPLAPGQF
Experimental: as §1, §2

blood pressure = test: Radio-telemetry blood pressure in SHR, up to 30 days; assay type: in vivo
[6] = system: dopamine/norepinephrine ratio; test: Dose response of tissue dopamine/norepinephrine ratio 6 hours after a single oral dose; assay type: in vivo, Sprague-Dawley rats
[7] = system: mean arterial pressure, renal blood flow; test: Arterial pressure and renal function in anesthetized SHR after iv dosing; assay type: in vivo; details: 3.0 mg/kg i.v.
[8] = Plasma levels of nepicastat and N-acetyl metabolite in dogs, 2 mg/kg b.i.d.; assay type: in vivo, beagle dogs; details: 2 mg/kg bid, sampled 6 h after AM dose
Experimental: Male Beagle dogs (Marshall farms, North Rose, N.Y.) weighing between 9-16 kg were used in the study. The animals were allowed water ad libitum and given food once daily at ˜10.00 AM. Animals were randomly assigned to one of the following treatment groups (n=8/group): placebo (empty capsule), or nepicastat at 2 mg/kg b.i.d (4 mg/kg/day). Each animal received 2 doses daily, morning and afternoon (8-10 hours apart). Daily blood samples (10 ml) were drawn 6 h after the AM dose for measurement of plasma levels of nepicastat and catecholamines. The blood was collected in tubes containing heparin and glutathione and centrifuged at −4° C. within 1 h of collection. The plasma was separated and divided into two samples, one for the measurement of plasma catecholamines and the other for analysis of nepicastat.
Plasma NE, DA and EPI were anaylysed by HPLC using electrochemical detection. Plasma concentration of nepicastat was determined by HPLC using electrochemical detection.

SMILES: Cl.NCc1c[nH]c(=S)n1[C@H]1CCc2c(F)cc(F)cc2C1 [nepicastat, (S)-5-Aminomethyl-1-(5,7-difluoro-1,2,3,4-tetrahydronaphth-2-yl)-2,3-dihydro-2-thioxo-1H-imidazole hydrochloride]
- pIC50 [1]: < 5.00
- pIC50 (HMG-CoA reductase): < 5.00
- pIC50 (acetyl CoA synthetase): < 5.00
- pIC50 [2]: < 5.00
- pIC50 (cyclooxygenase-I): < 5.00
- pIC50 (neutral endopeptidase): < 5.00
- pIC50 (nitric oxide synthase): < 5.00
- pIC50 (protein kinase C): < 5.00
- pIC50 (tyrosine hydroxylase): < 5.00
- pKi [3]: < 5.00
- pKi [4]: < 5.00
- pKi [5]: < 5.00
- pKi (D1 dopamine receptors): < 5.00
- pKi (D2 dopamine receptors): < 5.00
- pKi (M1 muscarinic receptors): < 5.00
- pKi (α2A adrenoceptors): < 5.00
- pKi (α2B adrenoceptors): < 5.00
- pKi (β1 adrenoceptors): < 5.00
- pKi (β2 adrenoceptors): < 5.00
- pKi (μ opioid receptors): < 5.00
- pKi (⊕1B adrenoceptors): < 5.00
- peak decrease in blood pressure (blood pressure; 30 mg/kg/d): −20 mmHg
- peak decrease in blood pressure (blood pressure; 100 mg/kg/d): −42 mmHg
- effect on blood pressure (blood pressure; 3 and 10 mg/kg/d): no significant effects
- effect on blood pressure (blood pressure; 30 and 100 mg/kg/d for 30 days): significantly lowered blood pressure
- effect on blood pressure of nepicastat 30 mg/kg combined with enalapril 1 mg/kg p.o. (blood pressure; 30 days of dosing): potentiation of the antihypertensive effects
- left ventricular mass, nepicastat 30 mg/kg combined with enalapril 1 mg/kg p.o. (blood pressure; 30 days of dosing): significant reduction in left ventricular mass
- motor activity (blood pressure; 30 days of dosing): unaffected
- dose with significant increase in dopamine/norepinephrine ratio, left ventricle [6]: 1.0 mg/kg
- dose with significant increase in dopamine/norepinephrine ratio, mesenteric artery [6]: 3.0 mg/kg
- dose with significant increase in dopamine/norepinephrine ratio, cerebral cortex ([6]; only at this dose): 100 mg/kg
- renal blood flow, urine production, urinary sodium and potassium excretion [7]: did not lower renal blood flow or alter urine production or urinary excretion of sodium or potassium
- mean arterial pressure ([7]; 3 hour period): decreased mean arterial pressure
- time of peak plasma levels of the drug [8]: 2 days post-dose
